For 3 molecules, pKa results are on record in patent publication US9217170B2, “Fluorescent detector systems for the detection of chemical perturbations in sterile storage devices” (Blood Cell Storage, Inc., priority 2004, dated 2015).

Data set [1] is described as follows: pKa determination from fluorescence emission spectra of SNAFL analogs. The following applies: phosphate buffer, pH 6.
Description: (§1) Absorbance was measured at pH 6, 8, and 10: acid (pH 6) gave two bands of similar absorbance; pH 10 gave a single λmax (base). The emission spectra were determined by excitation at the absorbance λmax (base). The wavelength where emission spectra crossed is reported as λiso. The emission λmax was measured at pH 10. pKa was determined from fluorescence emission spectra.
(§2) Fluorescence versus pH of various SNAFL free acids were compared using an Ocean Optics USB2000 fiber optic spectrometer and a tungsten halogen light source (part number HL-2000 FHSA). The light source was equipped with a linear variable filter that allowed the wavelength and shape of the excitation beam to be adjusted. […] A cuvette holder (part number CUV-FL-DA) was directly attached to the light source and a fiber optic cable directed emitted light to the spectrometer. Excitation conditions are reported for each fluorescence spectrum (3000 msec irradiation at the indicated wavelength). Spectral data were collected on a personal computer using the Ocean Optics software and overlays of different spectra were captured. […]
(§3) The pH at which two molecular species (tautomers) are equally represented is defined as the pKa. […] The intensity of fluorescence at the emission maxima is divided by 2, and pH of the intersecting pH curve is calculated by interpolation between the nearest 2 curves.
The conditions of data set [2]: published / literature value; cited from earlier work.
The conditions of data set [3]: pH 6.
Description: as §1, §2, §3

Where two headings read alike, the source gives them in different places.

Regarding `O=C(O)CCc1cc2c(-c3ccccc3C(=O)O)c3ccc4cc(O)c(Cl)cc4c3oc-2cc1=O` [EBIO-3, 2-(2-chloro-3-hydroxy-9-carboxyethyl-10-oxo-10H-benzo[c]xanthen-7-yl)benzoic acid], in data set [1], the pKa (commonly the negative logarithm of the acid dissociation constant) came out at 6.6.
For `O=S1(=O)OC2(c3ccccc31)c1ccc3cc(O)ccc3c1Oc1c2ccc2cc(O)ccc12` [VITABLUE], the pKa in data set [2] is on record as 7.56.
As for “5′(and 6′)-carboxy-3,10-dihydroxy-spiro[7H-benzo[c]xanthene-7,1′(3′H)-isobenzofuran]-3′-one [SNAFL-1]”, the pKa in data set [3] came to 7.6.
